Experiment [1] concerns the target T1, human GPR139 receptor (Homo sapiens, UniProt Q6DWJ6).
T1 construct: expressed in transfected cells; host or cells: T-REx-CHO (Thermo Fisher Scientific), doxycycline-induced
T1 sequence (Q6DWJ6 1-353): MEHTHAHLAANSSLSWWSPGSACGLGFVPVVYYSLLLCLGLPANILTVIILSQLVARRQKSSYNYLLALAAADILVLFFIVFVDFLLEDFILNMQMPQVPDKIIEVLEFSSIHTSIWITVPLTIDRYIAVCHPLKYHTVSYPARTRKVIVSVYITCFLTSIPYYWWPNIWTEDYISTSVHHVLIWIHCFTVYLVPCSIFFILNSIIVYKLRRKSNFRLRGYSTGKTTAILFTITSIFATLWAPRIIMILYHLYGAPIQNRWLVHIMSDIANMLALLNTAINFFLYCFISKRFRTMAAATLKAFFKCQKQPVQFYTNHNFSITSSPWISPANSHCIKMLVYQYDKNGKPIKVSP
Briefly: GPR139 Competition Binding (membrane-based, tritium-labeled ligand). To be noted: T-REx-CHO membranes with human GPR139; 6.5 nM tritium-labeled ligand; 11-point curve, 30 μM maximum concentration; read-out: GPR139 Binding Affinity (pKi) (converted). The essentials:
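Membranes came from doxycycline-induced T-REx-CHO cells expressing human GPR139. They were incubated 20 min at room temperature with 6.5 nM tritiated ligand and compound (11 points, top 30 μM) in HEPES pH 7.3 buffer with MgCl2/CaCl2. Filter-bound counts gave Ki by four-parameter fit, reported as pKi.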

In experiment [2] the target is T1, human GPR139 receptor. Briefly: Measurement of GPR139 Activation Via Calcium Signaling (FLIPR, T-REx-CHO cells). To be noted: T-REx-CHO cells stably expressing human GPR139, 11-point dose response, 10 μM maximum concentration, read-out: GPR139 Potency (pEC50) (converted). Type of experiment: cell-based. The essentials: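 T-REx-CHO cells stably carrying human GPR139 under tetracycline control, induced with 2 μg/mL doxycycline for 17 h at 37 °C, loaded 40 min with Calcium 5 dye plus probenecid in HBSS/HEPES pH 7.4. Agonist added as 11-point series (10 μM top); fluorescence read 1 min; pEC50 from four-parameter fit.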

As for `C[C@H](NC(=O)Cn1ncc2c(c(C3CC3)nn2C)c1=O)c1ccc(C(F)(F)F)cc1` [Example 115, (S)-2-(3-cyclopropyl-1-methyl-4-oxo-1,4-dihydro-5H-pyrazolo[3,4-d]pyridazin-5-yl)-N-(1-(4-(trifluoromethyl)phenyl)ethyl)acetamide], the Ki at human GPR139 receptor [1] was 58.9 nM. Besides, at human GPR139 receptor [2], the EC50 was 224 nM.

Turning to `COc1ccc([C@H](C)NC(=O)Cn2ncc3c(c(C4CC4)nn3C)c2=O)cc1` [Example 116, (S)-2-(3-cyclopropyl-1-methyl-4-oxo-1,4-dihydro-5H-pyrazolo[3,4-d]pyridazin-5-yl)-N-(1-(4-methoxyphenyl)ethyl)acetamide], the Ki on human GPR139 receptor [1] is 339 nM. In addition, at human GPR139 receptor [2], the EC50 is 74.1 nM.

In the case of `Cc1ccc([C@H](C)NC(=O)Cn2nc(C)c3c(c(C4CC4)nn3C)c2=O)c(F)c1` [Example 117, (S)-2-(3-cyclopropyl-1,7-dimethyl-4-oxo-1,4-dihydro-5H-pyrazolo[3,4-d]pyridazin-5-yl)-N-(1-(2-fluoro-4-methylphenyl)ethyl)acetamide], the Ki on human GPR139 receptor [1] was 2.09 nM. For the same compound, on human GPR139 receptor [2], the EC50 was 50.1 nM.

For `Cc1nn(CC(=O)N[C@@H](C)c2ccc(OC(F)(F)F)cc2)c(=O)c2c(C3CC3)nn(C)c12` [Example 118, (S)-2-(3-cyclopropyl-1,7-dimethyl-4-oxo-1,4-dihydro-5H-pyrazolo[3,4-d]pyridazin-5-yl)-N-(1-(4-(trifluoromethoxy)phenyl)ethyl)acetamide], the Ki at human GPR139 receptor [1] was 23.4 nM. Further, the EC50 on human GPR139 receptor [2] is 69.2 nM.

Turning to `Cc1ccc([C@H](C)NC(=O)Cn2nc(C)c3c(c(C4CC4)nn3C)c2=O)cc1` [Example 119, (S)-2-(3-cyclopropyl-1,7-dimethyl-4-oxo-1,4-dihydro-5H-pyrazolo[3,4-d]pyridazin-5-yl)-N-(1-(p-tolyl)ethyl)acetamide], the Ki at human GPR139 receptor [1] was 7.94 nM. Also, on human GPR139 receptor [2], the EC50 was 33.9 nM.

Take `Cc1nn(CC(=O)N[C@@H](C)c2ccc(C(F)(F)F)cc2)c(=O)c2c(C3CC3)nn(C)c12` [Example 120, (S)-2-(3-cyclopropyl-1,7-dimethyl-4-oxo-1,4-dihydro-5H-pyrazolo[3,4-d]pyridazin-5-yl)-N-(1-(4-(trifluoromethyl)phenyl)ethyl)acetamide]: the Ki at human GPR139 receptor [1] was 17.4 nM. Further, the EC50 at human GPR139 receptor [2] is 182 nM.

As to `COc1ccc([C@H](C)NC(=O)Cn2nc(C)c3c(c(C4CC4)nn3C)c2=O)cc1` [Example 121, (S)-2-(3-cyclopropyl-1,7-dimethyl-4-oxo-1,4-dihydro-5H-pyrazolo[3,4-d]pyridazin-5-yl)-N-(1-(4-methoxyphenyl)ethyl)acetamide], the Ki at human GPR139 receptor [1] is 74.1 nM. Further, the EC50 on human GPR139 receptor [2] is 129 nM.

Regarding `Cc1ccc([C@H](C)NC(=O)Cn2ncc3c(c(C)nn3C3CC3)c2=O)cc1` [Example 122, (S)-2-(1-cyclopropyl-3-methyl-4-oxo-1,4-dihydro-5H-pyrazolo[3,4-d]pyridazin-5-yl)-N-(1-(p-tolyl)ethyl)acetamide], the Ki at human GPR139 receptor [1] is 245 nM. Also, the EC50 on human GPR139 receptor [2] was 83.2 nM.

As to `COc1ccc([C@H](C)NC(=O)Cn2nc(C)c3c(c(C)nn3C)c2=O)cc1` [Example 123, (S)—N-(1-(4-methoxyphenyl)ethyl)-2-(1,3,7-trimethyl-4-oxo-1,4-dihydro-5H-pyrazolo[3,4-d]pyridazin-5-yl)acetamide], the Ki on human GPR139 receptor [1] was 1450 nM. Further, the EC50 at human GPR139 receptor [2] is 2140 nM.

As to `Cc1ccc([C@H](C)NC(=O)Cn2ncc3c(c(C4CC4)nn3C)c2=O)c(F)c1` [Example 124, (S)-2-(3-cyclopropyl-1-methyl-4-oxo-1,4-dihydro-5H-pyrazolo[3,4-d]pyridazin-5-yl)-N-(1-(2-fluoro-4-methylphenyl)ethyl)acetamide], on human GPR139 receptor [1], the Ki is 7.08 nM. Moreover, on human GPR139 receptor [2], the EC50 is 60.3 nM.

With `C[C@H](NC(=O)Cn1ncc2c(c(C3CC3)nn2C)c1=O)c1ccc(OC(F)(F)F)cc1` [Example 125, (S)-2-(3-cyclopropyl-1-methyl-4-oxo-1,4-dihydro-5H-pyrazolo[3,4-d]pyridazin-5-yl)-N-(1-(4-(trifluoromethoxy)phenyl)ethyl)acetamide], the Ki on human GPR139 receptor [1] was 47.9 nM. Besides, the EC50 on human GPR139 receptor [2] was 123 nM.

As for `Cc1nn(C)c2cnn(CC(=O)N[C@@H](C)c3c(F)cccc3F)c(=O)c12` [Example 126, (S)—N-(1-(2,6-difluorophenyl)ethyl)-2-(1,3-dimethyl-4-oxo-1,4-dihydro-5H-pyrazolo[3,4-d]pyridazin-5-yl)acetamide], the Ki on human GPR139 receptor [1] is 955 nM. On human GPR139 receptor [2], the EC50 was 324 nM.

As to `COc1ccc([C@H](C)NC(=O)Cn2ncc3c(c(C)nn3C3CC3)c2=O)c(F)c1` [Example 127, (S)-2-(1-cyclopropyl-3-methyl-4-oxo-1,4-dihydro-5H-pyrazolo[3,4-d]pyridazin-5-yl)-N-(1-(2-fluoro-4-methoxyphenyl)ethyl)acetamide], on human GPR139 receptor [1], the Ki was 933 nM. Besides, the EC50 at human GPR139 receptor [2] is 25.7 nM.

`Cc1nn(C2CC2)c2cnn(CC(=O)N[C@@H](C)c3ccc(F)cc3F)c(=O)c12` [Example 128, (S)-2-(1-cyclopropyl-3-methyl-4-oxo-1,4-dihydro-5H-pyrazolo[3,4-d]pyridazin-5-yl)-N-(1-(2,4-difluorophenyl)ethyl)acetamide]: the Ki at human GPR139 receptor [1] was 257 nM. On human GPR139 receptor [2], the EC50 was 67.6 nM.

Take `COc1ccc([C@H](C)NC(=O)Cn2ncc3c(c(C)nn3C3CC3)c2=O)cc1F` [Example 129, (S)-2-(1-cyclopropyl-3-methyl-4-oxo-1,4-dihydro-5H-pyrazolo[3,4-d]pyridazin-5-yl)-N-(1-(3-fluoro-4-methoxyphenyl)ethyl)acetamide]: the Ki on human GPR139 receptor [1] was 724 nM. Besides, the EC50 at human GPR139 receptor [2] is 53.7 nM.

Turning to `Cc1ccc([C@H](C)NC(=O)Cn2ncc3c(c(C)nn3C3CC3)c2=O)cc1F` [Example 130, (S)-2-(1-cyclopropyl-3-methyl-4-oxo-1,4-dihydro-5H-pyrazolo[3,4-d]pyridazin-5-yl)-N-(1-(3-fluoro-4-methylphenyl)ethyl)acetamide], the Ki at human GPR139 receptor [1] is 38 nM. In addition, the EC50 at human GPR139 receptor [2] is 17.8 nM.

`Cc1nn(C2CC2)c2cnn(CC(=O)N[C@@H](C)c3ccc(F)cc3Cl)c(=O)c12` [Example 131, (S)—N-(1-(2-chloro-4-fluorophenyl)ethyl)-2-(1-cyclopropyl-3-methyl-4-oxo-1,4-dihydro-5H-pyrazolo[3,4-d]pyridazin-5-yl)acetamide]: the Ki at human GPR139 receptor [1] was 42.7 nM. The EC50 at human GPR139 receptor [2] was 41.7 nM.

Consider `COc1cc([C@H](C)NC(=O)Cn2ncc3c(c(C)nn3C3CC3)c2=O)ccc1F` [Example 132, (S)-2-(1-cyclopropyl-3-methyl-4-oxo-1,4-dihydro-5H-pyrazolo[3,4-d]pyridazin-5-yl)-N-(1-(4-fluoro-3-methoxyphenyl)ethyl)acetamide], for which the Ki on human GPR139 receptor [1] is 2240 nM. Further, on human GPR139 receptor [2], the EC50 is 708 nM.

Turning to `Cc1nn(C2CC2)c2cnn(CC(=O)N[C@@H](C)c3c(F)cc(F)cc3F)c(=O)c12` [Example 133, (S)-2-(1-cyclopropyl-3-methyl-4-oxo-1,4-dihydro-5H-pyrazolo[3,4-d]pyridazin-5-yl)-N-(1-(2,4,6-trifluorophenyl)ethyl)acetamide], the Ki at human GPR139 receptor [1] was 316 nM. For the same compound, the EC50 at human GPR139 receptor [2] is 295 nM.

For `Cc1cc([C@H](C)NC(=O)Cn2ncc3c(c(C)nn3C3CC3)c2=O)ccc1F` [Example 134, (S)-2-(1-cyclopropyl-3-methyl-4-oxo-1,4-dihydro-5H-pyrazolo[3,4-d]pyridazin-5-yl)-N-(1-(4-fluoro-3-methylphenyl)ethyl)acetamide], the Ki at human GPR139 receptor [1] was 589 nM. For the same compound, the EC50 at human GPR139 receptor [2] is 24 nM.

For the compound `Cc1nn(C2CC2)c2cnn(CC(=O)N[C@@H](C)c3cc(F)cc(F)c3)c(=O)c12` [Example 135, (S)-2-(1-cyclopropyl-3-methyl-4-oxo-1,4-dihydro-5H-pyrazolo[3,4-d]pyridazin-5-yl)-N-(1-(3,5-difluorophenyl)ethyl)acetamide], the Ki at human GPR139 receptor [1] was 132 nM. Besides, at human GPR139 receptor [2], the EC50 was 14.1 nM.

On to `Cc1nn(C2CC2)c2cnn(CC(=O)N[C@@H](C)c3c(F)cccc3Cl)c(=O)c12` [Example 136, (S)—N-(1-(2-chloro-6-fluorophenyl)ethyl)-2-(1-cyclopropyl-3-methyl-4-oxo-1,4-dihydro-5H-pyrazolo[3,4-d]pyridazin-5-yl)acetamide], for which the Ki at human GPR139 receptor [1] is 81.3 nM. The EC50 at human GPR139 receptor [2] is 91.2 nM.

As for `Cc1nn(CC(=O)N[C@@H](C)c2ccc(C(F)(F)F)cn2)c(=O)c2ncn(C)c12` [Example 137, (S)-2-(1,7-dimethyl-4-oxo-1,4-dihydro-5H-imidazo[4,5-d]pyridazin-5-yl)-N-(1-(5-(trifluoromethyl)pyridin-2-yl)ethyl)acetamide], the Ki on human GPR139 receptor [1] was 30200 nM. In addition, the EC50 at human GPR139 receptor [2] was 2630 nM.

For `Cc1ccc([C@H](C)NC(=O)Cn2ncc3ncn(C)c3c2=O)cc1` [Example 138, (S)-2-(3-methyl-4-oxo-3,4-dihydro-5H-imidazo[4,5-d]pyridazin-5-yl)-N-(1-(p-tolyl)ethyl)acetamide], the Ki on human GPR139 receptor [1] was 30200 nM. Also, the EC50 on human GPR139 receptor [2] is 363 nM.

For the origin of these results see US12370192B2, “Azole-fused pyridazin-3(2H)-one derivatives” (TAKEDA PHARMACEUTICAL COMPANY LIMITED, priority 2019, dated 2025).
